From patent publication US20110230493A1, “1-OXA-8-Azaspiro [4,5] Decabe-8-Carboxamide Compounds as FAAH Inhibitors” (Pfizer Inc., priority 2008, published 2011) come the findings set out here.

SMILES strings stand for the structures. Marks after values point to notes of the source that are not given here.

One assay has as its target T1, human FAAH (Homo sapiens, UniProt O00519).
T1 construct: made in house; host or cells: E. coli
T1 sequence (O00519 1-579): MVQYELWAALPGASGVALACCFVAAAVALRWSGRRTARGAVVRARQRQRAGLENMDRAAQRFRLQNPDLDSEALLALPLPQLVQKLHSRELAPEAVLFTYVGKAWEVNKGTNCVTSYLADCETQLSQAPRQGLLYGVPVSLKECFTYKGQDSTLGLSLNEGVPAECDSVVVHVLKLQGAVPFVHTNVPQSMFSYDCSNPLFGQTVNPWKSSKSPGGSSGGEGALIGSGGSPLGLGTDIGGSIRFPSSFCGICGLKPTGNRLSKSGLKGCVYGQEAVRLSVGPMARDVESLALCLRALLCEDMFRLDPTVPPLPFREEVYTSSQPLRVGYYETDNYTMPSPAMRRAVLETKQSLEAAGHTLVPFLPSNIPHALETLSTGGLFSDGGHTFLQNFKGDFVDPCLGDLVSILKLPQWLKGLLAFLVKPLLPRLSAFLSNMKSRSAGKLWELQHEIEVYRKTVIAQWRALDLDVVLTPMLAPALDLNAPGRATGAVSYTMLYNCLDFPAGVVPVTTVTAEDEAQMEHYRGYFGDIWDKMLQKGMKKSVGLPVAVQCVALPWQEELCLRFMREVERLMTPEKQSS
The assay is described as follows: FAAH assay, human FAAH enzyme inactivation (kinact/Ki). It is filed as biochemical. The settings on record: oleamide 50 μM, 30° C.; for hFAAH kinact/Ki: in vitro, pH 7.4; for kinact/KI: pH 7.4, in vitro, read-out: hFAAH kinact/Ki. An outline of the steps: (§1)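 Oleamide hydrolysis by 1-4 nM purified E. coli-expressed FAAH (substrate 50 μM = Km) coupled to GDH/NADH, pH 7.4 phosphate, 7.5% DMSO and EtOH, 30° C; A340 followed 90 min. kobs from mono-exponential fits; kinact/Ki from kobs-versus-concentration slope, multiplied by two.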

The next assay has as its target T2, rat FAAH (Rattus norvegicus, UniProt P97612).
T2 construct: made in house; host or cells: E. coli
T2 sequence (P97612 1-579): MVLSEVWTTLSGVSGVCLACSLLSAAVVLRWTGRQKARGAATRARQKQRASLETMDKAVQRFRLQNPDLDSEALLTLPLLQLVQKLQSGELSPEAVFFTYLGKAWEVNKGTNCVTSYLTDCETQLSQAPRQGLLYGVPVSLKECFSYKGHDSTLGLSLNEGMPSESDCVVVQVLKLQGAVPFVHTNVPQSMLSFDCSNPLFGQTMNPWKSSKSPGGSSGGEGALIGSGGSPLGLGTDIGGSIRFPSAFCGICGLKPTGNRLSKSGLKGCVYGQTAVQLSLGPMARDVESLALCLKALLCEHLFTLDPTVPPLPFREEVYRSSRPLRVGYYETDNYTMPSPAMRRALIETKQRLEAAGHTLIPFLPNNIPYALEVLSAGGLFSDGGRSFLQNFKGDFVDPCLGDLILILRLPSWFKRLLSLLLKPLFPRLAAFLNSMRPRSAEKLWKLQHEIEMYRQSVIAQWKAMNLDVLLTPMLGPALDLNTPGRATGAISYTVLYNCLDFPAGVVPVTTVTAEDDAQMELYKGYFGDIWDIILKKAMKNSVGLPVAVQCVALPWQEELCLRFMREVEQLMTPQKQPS
The assay is described as follows: FAAH assay, rat FAAH enzyme inactivation (kinact/Ki). It is filed as biochemical. The settings on record: oleamide 50 μM, 30° C.; for rFAAH kinact/Ki: in vitro, pH 7.4; for kinact/KI: pH 7.4, in vitro, read-out: rFAAH kinact/Ki. An outline of the steps: as §1

In another assay the test system is Male Sprague-Dawley Rats. The assay is described as follows: In vivo Complete Freund's Adjuvant (CFA) efficacy assay, inhibition of allodynia. Also noted: species or system rat; key: (+) indicates the test compound was determined to be efficacious at 3 mpk, oral dosing; (−) indicates the test compound was determined to not be efficacious at 3 mpk, oral dosing. The settings on record: p < 0.05 vs vehicle group. The protocol: For additional information on the CFA efficacy assay, see Jayamanne et al., Brit. J. Pharmacol. 2006, 147, 281-288. Experiments were performed on adult Male Sprague-Dawley Rats (200 g-250 g). Inflammation was induced in the left hindpaw of the rat by an intra-plantar injection of 150 uL Complete Freund's Adjuvant (CFA) (SIGMA F5881). The CFA injection immediately induces local inflammation, paw swelling, and pain that persists for at least two weeks post-injection. Baseline paw withdrawal threshold (PWT) was measured to determine the percent inhibition of allodynia using a set of Von Frey Hairs on day 4 post injection as illustrated by the Dixon Up and Down Method (W. J. Dixon, Ann. Rev. Pharmacol. Toxicol. 1980, 20:441-462). […] Following Dose administration PWT threshold was evaluated again at four hours postdose. The Sprague-Dawley rats used in this assay were purchased from Harlan, 8520 Allison Pointe Blvd., Indianapolis, Ind., 46250, U.S.A. Sprague-Dawley rats are an outbred breed of albino rats first produced by the Sprague Dawley farms in Madison, Wis., U.S.A.
Percent Inhibition of Allodynia was determined by the formula: […]
ΔPWT measurements were averaged for each treatment group and statistical comparisons between groups were made using ANOVA and Dunnett's two-tailed test. […]

Where [1] appears, read: 3 mpk, oral dosing, PWT four hours postdose.

Take `Cc1noc(NC(=O)N2CCC3(CC2)CC(c2noc(-c4ccc(C(F)(F)F)cc4)n2)CO3)c1C` (single isomer, unassigned) [Example 76, N-(3,4-dimethylisoxazol-5-yl)-3-{5-[4-(trifluoromethyl)phenyl]-1,2,4-oxadiazol-3-yl}-1-oxa-8-azaspiro[4.5]decane-8-carboxamide]: on human FAAH, the “hFAAH kinact/Ki” value was determined as 3120 M⁻¹ s⁻¹. Besides, at rat FAAH, the “rFAAH kinact/Ki” value turned out to be 1150 M⁻¹ s⁻¹. In addition, the “CFA Efficacy” value in the assay with Male Sprague-Dawley Rats (setting [1]) is recorded as “(+)”.
With `Cn1nnnc1NC(=O)N1CCC2(CC1)CC(c1cccc(OC(F)(F)F)c1)CO2` (single isomer, unassigned) [Example 77, N-(1-methyl-1H-tetrazol-5-yl)-3-[3-(trifluoromethoxy)phenyl]-1-oxa-8-azaspiro[4.5]decane-8-carboxamide], the kinact/KI on human FAAH came to 7110 M⁻¹ s⁻¹; on rat FAAH, 4560 M⁻¹ s⁻¹. In addition, the “CFA Efficacy” value in the assay on Male Sprague-Dawley Rats (setting [1]) was “(+)”.
For `Cn1nnnc1NC(=O)N1CCC2(CC1)CC(c1cccc(OC(F)(F)F)c1)CO2` (single isomer, unassigned) [Example 78, N-(1-methyl-1H-tetrazol-5-yl)-3-[3-(trifluoromethoxy)phenyl]-1-oxa-8-azaspiro[4.5]decane-8-carboxamide], the “hFAAH kinact/Ki” value at human FAAH was 7100 M⁻¹ s⁻¹. Besides, on rat FAAH, the “rFAAH kinact/Ki” value came out at 3840 M⁻¹ s⁻¹. In addition, in the assay on Male Sprague-Dawley Rats (setting [1]), the “CFA Efficacy” value is listed as “(+)”.
Taken in the same sequence, the figures for `Cn1nnnc1NC(=O)N1CCC2(CC1)CC(c1cccc(Cl)c1)CO2` (single isomer, unassigned) [Example 79, 3-(3-chlorophenyl)-N-(1-methyl-1H-tetrazol-5-yl)-1-oxa-8-azaspiro[4.5]decane-8-carboxamide] were 5600 M⁻¹ s⁻¹, 1970 M⁻¹ s⁻¹ and “(+)”.
In the case of `Cn1nnnc1NC(=O)N1CCC2(CC1)CC(c1cccc(Cl)c1)CO2` (single isomer, unassigned) [Example 80, 3-(3-chlorophenyl)-N-(1-methyl-1H-tetrazol-5-yl)-1-oxa-8-azaspiro[4.5]decane-8-carboxamide], on human FAAH, the “hFAAH kinact/Ki” value was 11400 M⁻¹ s⁻¹. The “rFAAH kinact/Ki” value on rat FAAH came to 5520 M⁻¹ s⁻¹. The “CFA Efficacy” value with Male Sprague-Dawley Rats (setting [1]) is on record as “(+)”.
As for `Cn1nnnc1NC(=O)N1CCC2(CC1)CC(c1noc(-c3ccc(C(F)(F)F)cc3)n1)CO2` (single isomer, unassigned) [Example 82, N-(1-methyl-1H-tetrazol-5-yl)-3-{5-[4-(trifluoromethyl)phenyl]-1,2,4-oxadiazol-3-yl}-1-oxa-8-azaspiro[4.5]decane-8-carboxamide], the kinact/KI on human FAAH stood at 5110 M⁻¹ s⁻¹; on rat FAAH, 1500 M⁻¹ s⁻¹. Further, the “CFA Efficacy” value in the assay with Male Sprague-Dawley Rats (setting [1]) is “(+)”.
Take `Cn1nnnc1NC(=O)N1CCC2(CC1)CC(c1noc(-c3ccc(C(F)(F)F)cc3)n1)CO2` (single isomer, unassigned) [Example 83, N-(1-methyl-1H-tetrazol-5-yl)-3-{5-[4-(trifluoromethyl)phenyl]-1,2,4-oxadiazol-3-yl}-1-oxa-8-azaspiro[4.5]decane-8-carboxamide]: the “hFAAH kinact/Ki” value at human FAAH was 5480 M⁻¹ s⁻¹. For the same molecule, at rat FAAH, the “rFAAH kinact/Ki” value turned out to be 974 M⁻¹ s⁻¹. Also, the “CFA Efficacy” value in the assay on Male Sprague-Dawley Rats (setting [1]) is “(+)”.
Take `Cn1nnnc1NC(=O)N1CCC2(CC1)CC(c1noc(-c3ccc(OC(F)(F)F)cc3)n1)CO2` (single isomer, unassigned) [Example 84, N-(1-methyl-1H-tetrazol-5-yl)-3-{5-[4-(trifluoromethoxy)phenyl]-1,2,4-oxadiazol-3-yl}-1-oxa-8-azaspiro[4.5]decane-8-carboxamide]: the results for the kinact/KI on human FAAH and on rat FAAH were 8420 M⁻¹ s⁻¹ and 1500 M⁻¹ s⁻¹, respectively. Besides, the “CFA Efficacy” value in the assay on Male Sprague-Dawley Rats (setting [1]) is recorded as “(+)”.
`Cn1nnnc1NC(=O)N1CCC2(CC1)CC(c1noc(-c3ccc(OC(F)(F)F)cc3)n1)CO2` (single isomer, unassigned) [Example 85, N-(1-methyl-1H-tetrazol-5-yl)-3-{5-[4-(trifluoromethoxy)phenyl]-1,2,4-oxadiazol-3-yl}-1-oxa-8-azaspiro[4.5]decane-8-carboxamide]: the “hFAAH kinact/Ki” value on human FAAH was found to be 5980 M⁻¹ s⁻¹. For the same molecule, the “rFAAH kinact/Ki” value at rat FAAH is 1340 M⁻¹ s⁻¹. Besides, in the assay on Male Sprague-Dawley Rats (setting [1]), the “CFA Efficacy” value is “(+)”.
Take `Cn1nnnc1NC(=O)N1CCC2(CC1)CC(c1cccc(C(F)(F)F)c1)CO2` (single isomer, unassigned) [Example 93, N-(1-methyl-1H-tetrazol-5-yl)-3-[3-(trifluoromethyl)phenyl]-1-oxa-8-azaspiro[4.5]decane-8-carboxamide]: the values for the kinact/KI on human FAAH and on rat FAAH were 4600 M⁻¹ s⁻¹ and 2160 M⁻¹ s⁻¹, respectively. Moreover, the “CFA Efficacy” value in the assay on Male Sprague-Dawley Rats (setting [1]) is “(+)”.
On to `Cn1nnnc1NC(=O)N1CCC2(CC1)CC(c1cccc(C(F)(F)F)c1)CO2` (single isomer, unassigned) [Example 94, N-(1-methyl-1H-tetrazol-5-yl)-3-[3-(trifluoromethyl)phenyl]-1-oxa-8-azaspiro[4.5]decane-8-carboxamid], for which the “hFAAH kinact/Ki” value at human FAAH was 3760 M⁻¹ s⁻¹. In addition, at rat FAAH, the “rFAAH kinact/Ki” value was 2110 M⁻¹ s⁻¹. In the assay on Male Sprague-Dawley Rats (setting [1]), the “CFA Efficacy” value was “(+)”.
On to `O=C(Nc1cccnn1)N1CCC2(CC1)C[C@@H](c1cccc(Oc3ccc(C(F)(F)F)cn3)c1)CO2` [Example 2, (3S)—N-pyridazin-3-yl-3-(3-{[5-(trifluoromethyl)pyridin-2-yl]oxy}phenyl)-1-oxa-8-azaspiro[4.5]decane-8-carboxamide], for which the kinact/KI on human FAAH was 1340 M⁻¹ s⁻¹; on rat FAAH, 1130 M⁻¹ s⁻¹. In addition, in the assay with Male Sprague-Dawley Rats (10 mpk, intraperitoneal dosing), the “CFA Efficacy” value is “(−)^c”.
For `O=C(Nc1cccnn1)N1CCC2(CC1)C[C@H](c1cccc(Oc3ccc(C(F)(F)F)cn3)c1)CO2` [Example 3, (3R)—N-pyridazin-3-yl-3-(3-{[5-(trifluoromethyl)pyridin-2-yl]oxy}phenyl)-1-oxa-8-azaspiro[4.5]decane-8-carboxamide] the same measures were 3040 M⁻¹ s⁻¹, 2240 M⁻¹ s⁻¹ and “(−)^c”.
Consider `O=C(Nc1cccnc1)N1CCC2(CC1)C[C@H](c1cccc(Oc3ccc(Br)cn3)c1)CO2` [Example 7, (3R)-3-{3-[(5-bromopyridin-2-yl)oxy]phenyl}-N-pyridin-3-yl-1-oxa-8-azaspiro[4.5]decane-8-carboxamide], for which the kinact/KI on human FAAH stood at 2890 M⁻¹ s⁻¹; at rat FAAH, 526 M⁻¹ s⁻¹. In the assay on Male Sprague-Dawley Rats (setting [1]), the “CFA Efficacy” value is “(+)”.
For `O=C(Nc1cccnc1)N1CCC2(CC1)C[C@@H](c1cccc(Oc3ccc(Br)cn3)c1)CO2` [Example 8], the kinact/KI on human FAAH is 1950 M⁻¹ s⁻¹; at rat FAAH, 3520 M⁻¹ s⁻¹. Also, in the assay on Male Sprague-Dawley Rats (setting [1]), the “CFA Efficacy” value is reported as “(+)”.
Taken in the same sequence, the figures for `O=C(Nc1cccnn1)N1CCC2(CC1)C[C@H](c1cccc(Oc3ccc(Br)cn3)c1)CO2` [Example 9, (3R)-3-{3-[(5-bromopyridin-2-yl)oxy]phenyl}-N-pyridazin-3-yl-1-oxa-8-azaspiro[4.5]decane-8-carboxamide] were 4970 M⁻¹ s⁻¹, 3340 M⁻¹ s⁻¹ and “(+)”.
